# Patent US6525059B1, “Substituted pyrazoles as p38 kinase inhibitors” (G. D. Searle & Company, priority 1998, dated 2003)
# Where a name gives a salt, the structure may show the parent alone. Read-outs that look alike come from different tables or passages of the source.
# How the values were obtained:
# [1] = target: T1, human GST-p38 kinase alpha (Homo sapiens, UniProt Q16539); experiment: p38 kinase in vitro assay, second format, phosphorylation of EGFRP with 33P-ATP; type: biochemical; conditions: read-out: p38α Kinase Assay IC50
# T1 construct: The coding region of the human p38a cDNA was obtained by PCR-amplification from RNA isolated from the human monocyte cell line THP.1; made in house; host or cells: E. coli DH10B
# T1 sequence (Q16539 whole entry): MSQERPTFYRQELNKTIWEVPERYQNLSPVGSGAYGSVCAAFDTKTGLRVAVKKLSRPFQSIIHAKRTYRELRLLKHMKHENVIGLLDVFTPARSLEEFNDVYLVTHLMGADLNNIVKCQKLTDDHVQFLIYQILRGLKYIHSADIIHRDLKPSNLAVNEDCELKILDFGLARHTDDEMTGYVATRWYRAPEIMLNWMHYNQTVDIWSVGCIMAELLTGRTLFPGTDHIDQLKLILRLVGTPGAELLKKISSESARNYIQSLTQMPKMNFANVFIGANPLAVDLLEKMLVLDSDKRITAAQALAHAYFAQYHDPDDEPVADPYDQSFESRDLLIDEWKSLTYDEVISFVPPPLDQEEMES
# Method: A second assay format was also employed that is based on p38 kinase alpha induced phosphorylation of EGFRP (epidermal growth factor receptor peptide, a 21 mer) in the presence of ^33P-ATP. Compounds were tested in 10 fold serial dilutions over the range of 100 μM to 0.001 μM in 10% DMSO. Each concentration of inhibitor was tested in triplicate. Compounds were evaluated in 50 μl reaction volumes in the presence of 25 mM Hepes pH 7.5, 10 mM magnesium acetate, 4% glycerol, 0.4% bovine serum albumin, 0.4 mM DTT, 50 μM unlabeled ATP, 25 μg EGFRP (200 μM), and 0.05 uCi gamma ^33P-ATP. Reactions were initiated by addition of 0.09 μg of activated, purified human GST-p38 kinase alpha. Activation was carried out using GST-MKK6 (5:1, p38: MKK6) for one hour at 30° C. in the presence of 50 μM ATP. Following incubation for 60 minutes at room temperature, the reaction was stopped by addition of 150 μl of AG 1×8 resin in 900 mM sodium formate buffer, pH 3.0 (1 volume resin to 2 volumes buffer). The mixture was mixed three times with pipetting and the resin was allowed to settle. A total of 50 μl of clarified solution head volume was transferred from the reaction wells to Microlite-2 plates. 150 μl of Microscint 40 was then added to each well of the Microlite plate, and the plate was sealed, mixed, and counted.
# human TNF = experiment: TNF inhibition: human whole blood assay; type: cell-based; conditions: Homo sapiens
# Method: Human peripheral blood is obtained in heparinized tubes. A 190 μL aliquot of blood is placed in each well of a 96 well u-bottom plate. […] After one hour of incubation at 37° C., […] of lipopolysaccharide (Salmonella typhosa, Sigma) in phosphate buffered saline is added resulting in a final concentration of […]. After four to five hours of incubation at 37° C., the supernatants are harvested and assayed at 1:10 or 1:20 dilutions for human TNF using ELISA.
# human p38 kinase alpha = target: T2, human p38 kinase alpha (Homo sapiens, UniProt Q16539); experiment: p38 kinase in vitro assay, phosphorylation of biotinylated PHAS-I with gamma 32P-ATP; type: biochemical
# T2 construct: The coding region of the human p38a cDNA was obtained by PCR-amplification from RNA isolated from the human monocyte cell line THP.1; GST (N); made in house; host or cells: E. coli DH10B
# T2 sequence (Q16539 whole entry): as above
# Summary of the method: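 Radiometric filter-capture read-out: streptavidin plates trap biotin-PHAS-I labelled by activated (MKK6) human p38α from γ-32P-ATP. Buffer 25 mM HEPES pH 7.5, 10 mM magnesium acetate, 50 μM cold ATP; reactions 1 h or overnight at 30 °C; inhibitors 10-fold dilutions 100 to 0.001 μM, triplicates, 1% DMSO.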
# TNF-α = experiment: Rat assay: LPS-challenged rats, serum TNF-α by ELISA; type: in vivo; conditions: for inhibition in vivo at 5 mg/kg / inhibition in vivo at 1 mg/kg: Rattus norvegicus, po; for inhibition in vivo at 1 mg/kg: 1.0 mg/kg oral gavage, read-out: ratLPS/% Inh @1.0 (mg/kg); for ratLPS/% Inh @20.0 (mg/kg): 20.0 mg/kg oral gavage
# [2] = Table 8, human whole blood, LPS, read-out: TNF Inhibition-Human Whole Blood Assay
# [3] = read-out: P38 alpha kinase IC50
# [4] = TNF production, LPS-stimulated human whole blood, read-out: Human Whole Blood IC50
# [5] = 5 mpk oral gavage, 4 h before LPS challenge, read-out: Rat LPS Model % Inhibition @ dose @ predose time
# [6] = TNF production, LPS-stimulated human whole blood, read-out: HWB IC50
# [7] = 5.0 mg/kg oral gavage, 4 hours before LPS challenge, read-out: ratLPS/% Inh @5.0 (mg/kg)
# [8] = read-out: Human Whole Blood IC50, μM
# [9] = read-out: Rat LPS Model % Inhibition @ dose @ predose time
compound,measurement,setting,value
"CN1CCC(Nc2n[nH]c(-c3ccc(F)cc3)c2-c2ccncc2)CC1 [Example A-338, N-[5-(4-fluorophenyl)-4-(pyridinyl)-1H-pyrazol-3-yl]-1-methyl-4-piperidinamine]",IC50,"[1]; Table 8, 10% DMSO",18 nM
same,IC50,human TNF; [2],0.059 µM
"CS(=O)(=O)c1[nH]nc(-c2ccc(F)cc2)c1-c1ccncc1 [Example A-437, 3-(4-fluorophenyl)-5-(methylsulfonyl)-4-pyridin-4-yl-1H-pyrazole]",IC50,"[1]; Table 10, 10% DMSO, @ 1.0 hour",7760 nM
same,IC50,"human TNF; Table 10, human whole blood, LPS, read-out: TNF Inhibition-Human Whole Blood Assay",> 25 µM
"Clc1ccc(-c2[nH]nc(N3CCN(c4ccccc4)CC3)c2-c2ccncc2)cc1 [Example A-335, 1-[5-(4-chlorophenyl)-4-(4-pyridinyl)-1H-pyrazol-3-yl]-4-phenylpiperazine]",IC50,"[1]; Table 8, 10% DMSO",89900 nM
same,IC50,human TNF; [2],> 25 µM
N=C(N)N1CCC(c2[nH]nc(-c3ccc(F)cc3)c2-c2ccncc2)CC1 [Example C-108],IC50,human p38 kinase alpha; [3],0.02 µM
same,IC50,human TNF; [4],0.73 µM
same,inhibition in vivo at 5 mg/kg,TNF-α; [5],0%
CC(C)(O)CCCc1[nH]nc(-c2ccc(F)cc2)c1-c1ccncc1 [Example C-133],IC50,human p38 kinase alpha; [3],0.16 µM
same,IC50,human TNF; [4],4.54 µM
same,inhibition in vivo at 5 mg/kg,TNF-α; [5],55%
CC(=O)N1CCC(c2[nH]nc(-c3ccc(F)cc3)c2-c2ccncc2)CC1 [Example C-113],IC50,human p38 kinase alpha; [3],0.082 µM
same,IC50,human TNF; [4],2.72 µM
same,inhibition in vivo at 5 mg/kg,TNF-α; [5],77%
FC(F)(F)c1ccc(-c2n[nH]c(C3CCNCC3)c2-c2ccncc2)cc1 [Example C-83],IC50,human p38 kinase alpha; [3],0.24 µM
same,IC50,human TNF; [4],1.23 µM
same,inhibition in vivo at 5 mg/kg,TNF-α; [5],25%
"CN(C)[C@H]1CC[C@@H](c2[nH]nc(-c3cccc(Cl)c3)c2-c2ccncc2)CC1 [Example C-106, 5-cis-(4-N,N-DIMETHYLAMINOCYCLOHEXYL)-4-(4-PYRIDYL)-3-(3-CHLOROPHENYL)PYRAZOLE]",IC50,human p38 kinase alpha; [3],0.026 µM
same,IC50,human TNF; [4],0.44 µM
same,inhibition in vivo at 5 mg/kg,TNF-α; [5],23%
O=C(CO)N1CCC(c2[nH]nc(-c3ccc(F)cc3)c2-c2ccncn2)CC1 [Example D-8],IC50,human p38 kinase alpha; read-out: p38 alpha IC50,0.18 µM
same,IC50,human TNF; [6],1.3 µM
same,inhibition in vivo at 1 mg/kg,TNF-α; 4 hours before LPS challenge,65%
same,inhibition in vivo at 5 mg/kg,TNF-α; [7],85%
"CC(C)(O)C(=O)N1CCC(c2[nH]nc(-c3ccc(Cl)cc3)c2-c2ccncn2)CC1 [Example D-4, hydrochloride]",IC50,human p38 kinase alpha; read-out: p38 alpha IC50,0.91 µM
same,IC50,human TNF; [6],1.55 µM
same,ratLPS/% Inh @20.0 (mg/kg),TNF-α; 4 hours before LPS challenge,99.0%
same,inhibition in vivo at 1 mg/kg,TNF-α; 4 hours before LPS challenge,42.3%
same,inhibition in vivo at 5 mg/kg,TNF-α; [7],83%
"O=C(CO)N1CCC(c2[nH]nc(-c3cccc(F)c3)c2-c2ccncn2)CC1 [Example D-12, N4(2Hydroxyacetyl)-5-(4-piperidyl)-4-(4-pyrimidyl)-3-(3-fluorophenyl)pyrazole]",IC50,human p38 kinase alpha; read-out: p38 alpha IC50,0.82 µM
same,IC50,human TNF; [6],7.06 µM
same,inhibition in vivo at 1 mg/kg,TNF-α; 4 hours before LPS challenge,71%
same,inhibition in vivo at 5 mg/kg,TNF-α; [7],91%
"COCC(=O)N1CCC(c2[nH]nc(-c3ccc(Cl)cc3)c2-c2ccncn2)CC1 [Example D-3, N-(2-Methoxyacetyl)-5-(4-piperidyl)-4-(4-pyrimidyl)-3-(4-chlorophenyl)pyrazole (fumarate salt)]",IC50,human p38 kinase alpha; read-out: p38 alpha IC50,0.095 µM
same,IC50,human TNF; [6],0.46 µM
same,ratLPS/% Inh @20.0 (mg/kg),TNF-α; 4 hours before LPS challenge,91.0%
same,inhibition in vivo at 1 mg/kg,TNF-α; 4 hours before LPS challenge,69%
same,inhibition in vivo at 5 mg/kg,TNF-α; [7],88%
Clc1cccc(-c2n[nH]c(C3CCNCC3)c2-c2ccncc2)c1 [Example C-88],IC50,human p38 kinase alpha; [3],0.012 µM
same,IC50,human TNF; [4],0.3 µM
same,inhibition in vivo at 5 mg/kg,TNF-α; [5],59%
CC(=O)N1CCCC(c2[nH]nc(-c3ccc(F)cc3)c2-c2ccncc2)C1 (stereo not drawn) [Example C-138],IC50,human p38 kinase alpha; [3],0.28 µM
same,IC50,human TNF; [4],0.68 µM
same,inhibition in vivo at 5 mg/kg,TNF-α; [5],26%
"O=C(CO)N1CCC(c2[nH]nc(-c3ccc(OC(F)(F)F)cc3)c2-c2ccncn2)CC1 [Example D-10, N-(2-Hydroxyacetyl)-5-(4-piperidyl)-4-(4-pyrimidyl)-3-(4-trifluoromethoxyphenyl)pyrazole]",IC50,human p38 kinase alpha; read-out: p38 alpha IC50,3.95 µM
same,IC50,human TNF; [6],14.8 µM
same,inhibition in vivo at 5 mg/kg,TNF-α; [7],80%
CS(=O)(=O)N1CCC(c2[nH]nc(-c3ccc(F)cc3)c2-c2ccncc2)CC1 [Example C-111],IC50,human p38 kinase alpha; [3],0.21 µM
same,IC50,human TNF; [4],6.05 µM
same,inhibition in vivo at 5 mg/kg,TNF-α; [5],39%
"CN1CCC[C@H]1c1[nH]nc(-c2ccc(F)cc2)c1-c1ccncc1 [Example C-124, (S)-5-(N-METHYL-2-PYROLIDINYL)-4-(4-PYRIDYL)-3-(4-FLUOROPHENYL)PYRAZOLE]",IC50,human p38 kinase alpha; [3],0.17 µM
same,IC50,human TNF; [4],4.56 µM
same,inhibition in vivo at 5 mg/kg,TNF-α; [5],51%
"O=C(CO)N1CCC(c2[nH]nc(-c3cccc(Cl)c3)c2-c2ccncn2)CC1 [Example D-11, N-(2-Hydroxyacetyl)-5-(4-piperidyl)-4-(4-pyrimidyl)-3-(3-chlorophenyl)pyrazole]",IC50,human p38 kinase alpha; read-out: p38 alpha IC50,0.16 µM
same,IC50,human TNF; [6],1.5 µM
same,inhibition in vivo at 1 mg/kg,TNF-α; 4 hours before LPS challenge,43%
same,inhibition in vivo at 5 mg/kg,TNF-α; [7],86%
COCC(=O)N1CCC(c2[nH]nc(-c3ccc(Cl)cc3)c2-c2ccncc2)CC1 [Example C-77],IC50,human p38 kinase alpha; [3],0.071 µM
same,IC50,human TNF; [4],8.2 µM
same,inhibition in vivo at 5 mg/kg,TNF-α; [5],92%
"CC(C)N[C@H]1CC[C@@H](c2[nH]nc(-c3ccc(F)cc3)c2-c2ccncc2)CC1 [Example C-100, 5-cis-[4-N-(2-PROPYL)AMINOCYCLOHEXYL]-4-(4-PYRIDYL)-3-(4-FLUOROPHENYL)PYRAZOLE]",IC50,human p38 kinase alpha; [3],0.027 µM
same,IC50,human TNF; [4],0.27 µM
same,inhibition in vivo at 5 mg/kg,TNF-α; [5],44%
CC(=N)N1CCC(c2[nH]nc(-c3ccc(F)cc3)c2-c2ccncc2)CC1 [Example C-107],IC50,"human p38 kinase alpha; P38 alpha kinase IC50, μM",0.014 µM
same,IC50,human TNF; [8],0.38 µM
same,inhibition in vivo at 5 mg/kg,TNF-α; [9],11%
CC(C)(N)C(=O)NCc1[nH]nc(-c2ccc(F)cc2)c1-c1ccncc1 [Example C-120],IC50,human p38 kinase alpha; [3],0.7 µM
same,IC50,human TNF; [8],18.6 µM
same,inhibition in vivo at 5 mg/kg,TNF-α; [9],26%
"C[C@@H](O)C(=O)N1CCC(c2[nH]nc(-c3ccc(Cl)cc3)c2-c2ccncn2)CC1 [Example D-6, hydrochloride]",IC50,human p38 kinase alpha; read-out: p38 alpha IC50,0.083 µM
same,IC50,human TNF; [6],1.33 µM
same,ratLPS/% Inh @20.0 (mg/kg),TNF-α; 4 hours before LPS challenge,100%
same,inhibition in vivo at 1 mg/kg,TNF-α; 4 hours before LPS challenge,82%
same,inhibition in vivo at 5 mg/kg,TNF-α; [7],96%
COCC(=O)N1CCCC(c2[nH]nc(-c3ccc(F)cc3)c2-c2ccncc2)C1 (stereo not drawn) [Example C-139],IC50,human p38 kinase alpha; [3],0.2 µM
same,IC50,human TNF; [4],3.66 µM
same,inhibition in vivo at 5 mg/kg,TNF-α; [5],46%
"CN(C)[C@H]1CC[C@@H](c2[nH]nc(-c3ccc(Cl)cc3)c2-c2ccncc2)CC1 [Example C-93, 5-cis-(4-N,N-DIMETHYLAMINOCYCLOHEXYL)-4-(4-PYRIDYL)-3-(4-CHLOROPHENYL)PYRAZOLE]",IC50,human p38 kinase alpha; [3],0.009 µM
same,IC50,human TNF; [4],0.38 µM
same,inhibition in vivo at 5 mg/kg,TNF-α; [5],50%
